Experimental data as given in patent US11382877B2, “Formulation of (E)-2,4,6-trimethoxystyryl-3-[(carboxymethyl)amino]-4-methoxybenzylsulphone with enhanced stability and bioavailability” (ONCONOVA THERAPEUTICS, INC., priority 2017, dated 2022).
Where a name gives a salt, the structure may show the parent alone.

Key:
[1] = tested on: immature bone marrow cells (blasts); assay: Intravenous infusion trials in MDS patients; format: in vivo
Description: According to one embodiment, Rigosertib was given as an intravenous infusion to MDS patients. In one trial, patients received 800 mg Rigosertib for two to five days every other week. According to another embodiment, patients received 650 to 1,700 mg Rigosertib for three to six days every other week. According to yet another embodiment, patients were initially treated with 800 mg to 1,500 mg Rigosertib for two days every week for three weeks followed by one week without treatment. The treatment schedule in these studies was later changed to 1,800 mg Rigosertib per day for three days every other week.

[2] = Phase 2 study in lower risk transfusion-dependent MDS patients, continuous vs intermittent oral administration, urinary adverse events; format: in vivo
Description: Soft gelatin capsule of Rigosertib was tested in this phase 2 study in LR (Lower Risk intermediate-1 or low risk per IPSS classification) transfusion-dependent MDS patients. The capsules (560 mg) were administered twice a day, under fasting conditions, approximately 12 hours apart. The total dose of drug was 1120 mg per day. Various treatment regimens were tested: • Continuous administration, i.e 4 out of 4 weeks. 9 patients were treated. • Intermittent administration; i.e 2 weeks on and one week off. 35 patients were treated. Safety assessment: medical history, physical examination, vital signs (blood pressure, temperature, respiration rate, and pulse), weight, standard 12-lead ECG, laboratory evaluations, and toxicity and AE assessments were monitored throughout the study. Urinary Adverse Events are pollakiuria, micturition urgency, urinary tract pain, hematuria and dysuria.

[3] = Phase II, Part 2 study of shorter spacing between two oral doses with azacitidine, urinary adverse events; format: in vivo, patients; conditions: doses administered about 8 hours apart
Description: This study was conducted in patients with high risk MDS. RAEB-t (Refractory Anemia with Excess Blasts in Transformation)/non-proliferative AML were eligible but patients with CMML (Chronic Myelomonocytic Leukemia) were excluded.
The Phase II, Part 2 component of the study consisted of 2 cohorts of up to 40 evaluable patients randomized 1:1 into 2 cohorts of up to 20 patients each to receive 1120 mg of rigosertib over 24 hours: either 560 mg in the morning before breakfast in the fasting state and 560 mg in the afternoon, or 840 mg in the morning before breakfast in the fasting state and 280 mg in the afternoon. The afternoon dose in both cohorts must be administered at 3 PM (±1 hr) at least 2 hours after lunch. Each cohort will be stratified among HMA (hypomethylating agents) naïve and HMA refractory patients.
Each patient was required to complete a diary indicating the day and time of drug intake and record daily urinary dipstick pH and microscopic hematuria test. Rigosertib was supplied as 280 mg and 70 mg (in the event that different doses are needed) capsules by Onconova. […]
Safety assessment: medical history, physical examination, vital signs (blood pressure, temperature, respiration rate, and pulse), weight, standard 12-lead ECG, laboratory evaluations, and toxicity and AE assessments were monitored throughout the study. […]

[4] = administered orally; cited from earlier work
[5] = tested on: immature bone marrow cells; assay: Higher risk MDS patients who previously failed Vidaza or Dacogen; format: in vivo; conditions: higher risk MDS patients after failure of azacitidine or decitabine
Source text: In another embodiment, the efficacy of Rigosertib was shown in higher risk MDS patients who had previously failed treatment with Vidaza (azacitidine) or Dacogen (decitabine). […] These patients experienced at least a 50 percent decrease or stabilization in the number of immature bone marrow cells, and their median survival was about 36 weeks.

[6] = 560 mg bid q12 hrs, intermittent 2 weeks on/1 week off, n = 35

In the case of `COc1cc(OC)c(/C=C/S(=O)(=O)Cc2ccc(OC)c(NCC(=O)O)c2)c(OC)c1` [Rigosertib, (E)-2,4,6-trimethoxystyryl-3-[(carboxymethyl)amino]-4-methoxybenzylsulphone sodium salt], the “Decrease or stabilization in the number of immature bone marrow cells (blasts)” value [1] is reported as no less than 50%, the “Incidence of Urinary AEs, Grade 1/2 (% of Patients)” value [2, 6] is reported as 71% and the “Incidence of Urinary AEs, Grade 1/2, number of patients” value [2, 6] is reported as 25. The “Incidence of Urinary AEs, Grade 3 (% of Patients)” value [2, 6] was 23%, the “Incidence of Urinary AEs, Grade 3, number of patients” value [2, 6] was 8 and the “Urinary adverse events (in words)” value ([2]; continuous administration 4 out of 4 weeks, 560 mg twice a day) was “high urinary adverse events”. The “Tolerability compared to continuous administration” value ([2]; intermittent administration 2 weeks on and one week off, 560 mg twice a day) was “better tolerated”, the “Incidence of urinary adverse events (in words)” value [3] was “dramatic reduction” and the Common adverse event [4] was “urothelial toxicity”. For the same compound, the “Decrease or stabilization in the number of immature bone marrow cells” value [5] was no less than 50% and the Median survival [5] was “about 36 weeks”.
